For orientation: IC50 means the point on the concentration scale where inhibition reaches its midpoint.

Data on 6 compounds can be found in PMC10859961, “Ir(III) Half-Sandwich Photosensitizers with a π-Expansive Ligand for Efficient Anticancer Photodynamic Therapy” (Journal of Medicinal Chemistry, 2024).

Assay [1] relates to A549 cancer cells. As to the kind of experiment: MTT cell viability assay, dark or photoactivated. The class given is cell-based, human. As to conditions: A549; for PI/Dose: dose 24.1 J cm‐2, PI from MTT; for IC50: 4 h incubation; for IC50 / PI green light (IC50,dark/IC50,light) / PI red light (IC50,dark/IC50,light) / PI blue light (IC50,dark/IC50,light): MTT; for PI green light (IC50,dark/IC50,light): green light 530 nm; for PI green light (IC50,dark/IC50,light) / PI red light (IC50,dark/IC50,light) / PI blue light (IC50,dark/IC50,light): 24.1 J cm^–2; for PI red light (IC50,dark/IC50,light): red light 655 nm; for PI blue light (IC50,dark/IC50,light): blue light 460 nm. How it is done: Cells were cultured in 96-well plates at a density of 3000 (A549), 2500 (HeLa), or 5000 (PC-3, 1BR.3.G, and MRC-5) cells per well in cell culture medium and allowed to attach for 24 h. Solutions of the complexes at different concentrations were prepared for cell treatments. In all cases, the solid compounds were weighed using an analytical balance (Mettler Toledo AX205DR) to ensure precise measurements. Subsequently, 5 mM solutions were prepared using DMSO. Solutions were then diluted in water to reach a concentration of 1 mM and then, aliquots were taken and diluted in culture medium to obtain solutions ranging from 0 to 50 μM. […] The cells were treated with these solutions in dark conditions or following the photoactivation protocol (see below). 48 h later the treatments were removed, and cells were washed with phosphate-buffered saline (PBS).
Initially, the effect of the complexes on the cell viability was determined by the 3-(4,5-dimethylthiazol-2-yl)-2,5-diphenyltetrazolium bromide (MTT) assay.[147] The cells were incubated for 2 h with 100 μL of culture medium together with 10 μL of MTT (Sigma-Aldrich) at 0.5 mg/mL. After discarding the medium, DMSO was added to each well to dissolve the purple formazan crystals. The absorbance of each well was determined on a Multiscan Plate Reader (Synergy 4, Biotek, Winooski) at a wavelength of 570 nm. Cell viability was also assessed using the CyQUANT Direct Cell Proliferation Assay (Thermo Fisher Scientific), following the manufacturer’s instructions. Briefly, after the treatments, the cells were washed with PBS, and an equal volume of culture medium and CyQUANT mix was added to each well. The plates were then incubated for 1 h at 37 °C. Subsequently, the fluorescence intensity was bottom read using a Multiscan Plate Reader (Synergy 4, Biotek, Winooski) with excitation and emission filters of 485 and 528 nm, respectively. In both assays, at least three replicates were measured for each treatment. The concentration that reduces the cell viability by 50% (IC50) was established using the Gen5 software (BioTek). Three independent experiments were carried out for each compound. […] The phototoxicity index (PI = IC50,dark/IC50,light) was determined.
To assess the photodynamic activity of the complexes, cells were incubated with the complexes for 4 h to enable their intracellular accumulation. The cells were then irradiated with light with a wavelength of 460 nm (blue), 530 nm (green), or 655 nm (red) for 1 h using a LED system (LuxLight) with an effective power of 6.7 mW cm^–2, which provides a total light dose of 24.1 J cm^–2. The LED system was positioned at 25 mm from the cell culture plates.

Assay [2] in a line: Photocatalytic NADH oxidation (UV-vis). It is filed as biochemical. Also noted: key: TON = ΔNADH concentration after 1 h / photocatalyst concentration. As to conditions: first hour, complex 2.5 μM, NADH 100 μM. How it is done: Fresh stock solutions of the complexes at 7.50 μM in H2O/MeOH mixture (97.5/2.5, v/v) and NADH at 300 μM in H2O/MeOH mixture (97.5/2.5, v/v) were prepared. In a quartz cell, 1 mL of complex solution, 1 mL of NADH solution, and 1 mL of solvent mixture were mixed to prepare a final solution with 2.50 μM complex and 100 μM NADH (complex/NADH rate = 1/40). The solutions were studied by recording UV–vis absorption spectra in dark conditions and under blue light irradiation (λexc = 470 nm, “Medusa” photoreactor) at ambient temperature and various time intervals for 8 h. In addition, a solution of NADH at 100 μM was studied under blue light irradiation to confirm its photostability. The photocatalytic rate of the photosensitizers was evaluated by monitoring its absorbance decrease at 340 nm, which correspond to NADH oxidation.
The turnover numbers (TONs) of complexes were calculated by measuring the absorption difference at 340 nm after 1 h of reaction. TON was calculated from the difference in NADH concentration after 1 h divided by the concentration of photocatalyst (eq 5), where b is the optical path length (1 cm). The concentration of NADH was obtained using the extinction coefficient ε340 = 5751 M^–1 cm^–1.[40],[148] [drawing 26] 5

Assay [3] is described as follows: 1O2 quantum yield determination with DPBF. The note with it: acetonitrile; for 1O2 generation quantum yield (ϕΔ), DPBF: 470 nm blue light. How it is done:
It was performed for complexes 1–8 in acetonitrile according to a relative procedure adapted from the literature[132]−[134] based on monitoring the oxidation of 1,3-diphenylisobenzofuran (DPBF, yellow) to 1,2-dibenzoylbenzene (colorless) photosensitized by the Ir(III) complexes. DPBF was used as an ^1O2 scavenger due to its fast reaction with this molecule. Fresh stock air-equilibrated solutions of photosensitizers (6.00 × 10^–6 M) and DPBF (1.50 × 10^–4 M) in acetonitrile were prepared. In a quartz cell, 1 mL of DPBF solution, 0.5 mL of complex solution, and 1.5 mL of acetonitrile were mixed to prepare a final solution with 5.00 × 10^–5 M DPBF and 1.00 × 10^–6 M complex. The final solutions were studied by recording UV–vis absorption spectra at room temperature in dark conditions (over a period of 6 min with time intervals of 2 min), under blue light irradiation (λexc = 470 nm, “Medusa” photoreactor) and under green light irradiation (λexc = 530 nm, “Medusa” photoreactor) for 5 s irradiation intervals during a total exposure period of 20 s. Absorption UV–vis spectra were recorded after every irradiation interval.
The consumption of DPBF probe was measured by monitoring its absorbance intensity decrease at 410 nm with irradiation time. ^1O2 generation quantum yield (ϕΔ) was calculated from eq 1 using Rose Bengal or [Ru(bpy)3]^2+ as reference for complexes with pbpz and pbpn ligands, respectively: [drawing 22] 1 where s and ref subscripts correspond to the complex and the reference, ϕΔ is the ^1O2 generation quantum yield (0.53 for Rose Bengal[135] and 0.56 for [Ru(bpy)3]Cl2[132] in degassed acetonitrile), S is the slope of the plots of the −ln(normalized absorbance) of DPBF at 410 nm vs the irradiation time, and F is the correction factor of absorption, which is given by F = 1–10^–O.D. (where O.D. is the optical density at 470 nm of solutions of complexes and references). The reproducibility of the results was confirmed by performing each experiment three times.
The stability of DPBF probe was studied in dark conditions and under light irradiation. In dark conditions and under green light irradiation the probe remains unaltered. However, under blue light irradiation, a photobleaching of DPBF was observed. Probe consumption was approximately 6.5% every 5 s. Therefore, a working interval of 20 s was chosen, where 75% of the probe remains stable. To calculate the ϕΔ, a correction factor was applied to the absorbance at 410 nm: a 6.5% of the previous value was added to each absorbance to counteract self-consumption of the probe (i.e., to the absorbance at 10 s, a 6.5% of the absorbance at 5 s was added).

The mark [4] stands for this setting: blue light 460 nm 1 h (24.1 J cm^–2), 48 h, read-out: IC50 blue light.
The mark [5] stands for this setting: green light 530 nm 1 h (24.1 J cm^–2), 48 h, read-out: IC50 green light.
[6] abbreviates: kept in the dark, viability after 48 h, read-out: IC50 dark.
[7] abbreviates: red light 655 nm 1 h (24.1 J cm^–2), 48 h, read-out: IC50 red light.

Each structure is given as a SMILES string. Where two headings read alike, the source gives them in different places.

`Cc1c(C)c(C)[c-](C)c1C.F[B-](F)(F)F.c1ccc2cc3nc4c5ccc[n+]6c5c5[c](cccc5c4nc3cc2c1)[Ir]6[n+]1cc[nH]c1` [complex 4, [(η^5-C5Me5)Ir(Im)(pbpn)]BF4]: the PI/Dose in assay [1] (530 nm) turned out to be 12.2. In addition, the IC50 worked out at 3.2 ± 2 nM in assay [1] (setting [4]), 10 ± 3 nM in assay [1] (setting [5]), 2900 ± 1000 nM in assay [1] (setting [6]) and 120 ± 50 nM in assay [1] (setting [7]). Also, the “PI green light (IC50,dark/IC50,light)” value in assay [1] worked out at 294. Besides, the “PI red light (IC50,dark/IC50,light)” value in assay [1] turned out to be 25. Besides, the figures for the “TON1h (NADH oxidation)” value in assay [2] (470 nm blue light) and in assay [2] (dark) were 9.71 and 0.31, respectively. For the same compound, the “1O2 generation quantum yield (ϕΔ), DPBF” value in assay [3] is 0.9894. In addition, the “Slope (S) of ‐ln(normalized Abs) vs time, photooxidation of DPBF” value (“Slope (S) of ‐ln(normalized Abs) vs time” for short) stood at 0.0890 in assay [3] (λir = 470 nm) and 0.0058 in assay [3] (λir = 530 nm).
On to `Cc1c(C)c(C)[c-](C)c1C.F[B-](F)(F)F.c1ccc(Cn2cc[n+]([Ir]3[c]4cccc5c6nc7ccccc7nc6c6ccc[n+]3c6c45)c2)cc1` [complex 7, [(η^5-C5Me5)Ir(bzIm)(pbpz)]BF4], for which the figures for the half-inhibitory concentration (IC50) in assay [1] (setting [4]), in assay [1] (setting [5]) and in assay [1] (setting [6]) were 650 ± 200 nM, 470 ± 40 nM and 770 ± 200 nM, respectively. The “PI blue light (IC50,dark/IC50,light)” value in assay [1] is listed as 1.2. Moreover, the “PI green light (IC50,dark/IC50,light)” value in assay [1] was 1.7. For the same compound, the “TON1h (NADH oxidation)” value in assay [2] (470 nm blue light) worked out at 4.54; in assay [2] (dark), 0.12. Also, the “1O2 generation quantum yield (ϕΔ), DPBF” value in assay [3] stood at 0.0204.
For the compound `Cc1c(C)c(C)[c-](C)c1C.F[B-](F)(F)F.c1ccc2nc3c4ccc[n+]5c4c4[c](cccc4c3nc2c1)[Ir]5[n+]1ccn(CCN2CCCCC2)c1` [complex 5, [(η^5-C5Me5)Ir(Imepip)(pbpz)]BF4], the IC50 in assay [1] (setting [4]) amounted to 390 ± 100 nM; in assay [1] (setting [5]) it was 520 ± 20 nM; in assay [1] (setting [6]), 830 ± 20 nM. Moreover, the “PI blue light (IC50,dark/IC50,light)” value in assay [1] is on record as 2.1. Moreover, the “PI green light (IC50,dark/IC50,light)” value in assay [1] was found to be 1.6. The “TON1h (NADH oxidation)” value in assay [2] (470 nm blue light) worked out at 2.36; in assay [2] (dark), 0.37. Besides, the “1O2 generation quantum yield (ϕΔ), DPBF” value in assay [3] came out at 0.026.
As for `Cc1c(C)c(C)[c-](C)c1C.F[B-](F)(F)F.c1ccc2cc3nc4c5ccc[n+]6c5c5[c](cccc5c4nc3cc2c1)[Ir]6[n+]1ccn(CCN2CCCCC2)c1` [complex 6, [(η^5-C5Me5) Ir(Imepip)(pbpn)]BF4], the values for the PI/Dose in assay [1] (460 nm) and in assay [1] (655 nm) were 54.6 and 2.6, respectively. For the same compound, the IC50 in assay [1] (setting [4]) was found to be 1.5 ± 0.5 nM; in assay [1] (setting [5]) it was 11 ± 4 nM; in assay [1] (setting [6]) it was 2000 ± 100 nM; in assay [1] (setting [7]) it was 32 ± 10 nM. The “PI green light (IC50,dark/IC50,light)” value in assay [1] stood at 179. In assay [1], the “PI red light (IC50,dark/IC50,light)” value came to 63. Also, the “TON1h (NADH oxidation)” value in assay [2] (470 nm blue light) is given as 7.79; in assay [2] (dark) it was 0.94. The “1O2 generation quantum yield (ϕΔ), DPBF” value in assay [3] is reported as 0.8118. The “Slope (S) of ‐ln(normalized Abs) vs time” value came out at 0.0657 in assay [3] (λir = 470 nm) and 0.0069 in assay [3] (λir = 530 nm).
Consider `Cc1c(C)c(C)[c-](C)c1C.[Cl][Ir]1[c]2cccc3c4nc5ccccc5nc4c4ccc[n+]1c4c23` [complex 1, [(η^5-C5Me5)IrCl(pbpz)]], for which the IC50 stood at 2900 ± 400 nM in assay [1] (setting [4]), 5800 ± 100 nM in assay [1] (setting [5]) and 8000 ± 1000 nM in assay [1] (setting [6]). The “PI green light (IC50,dark/IC50,light)” value in assay [1] was 1.4. Besides, the results for the “TON1h (NADH oxidation)” value in assay [2] (470 nm blue light) and in assay [2] (dark) were 12.47 and 0.16, respectively. Besides, in assay [3], the “1O2 generation quantum yield (ϕΔ), DPBF” value came to 0.0780.
Regarding `Cc1c(C)c(C)[c-](C)c1C.F[B-](F)(F)F.c1ccc(Cn2cc[n+]([Ir]3[c]4cccc5c6nc7cc8ccccc8cc7nc6c6ccc[n+]3c6c45)c2)cc1` [complex 8, [(η^5-C5Me5)Ir(bzIm)(pbpn)]BF4], the IC50 is 0.2 ± 0.1 nM in assay [1] (setting [4]), 2.1 ± 0.4 nM in assay [1] (setting [5]), 150 ± 50 nM in assay [1] (setting [6]) and 30 ± 20 nM in assay [1] (setting [7]). Moreover, in assay [1], the “PI green light (IC50,dark/IC50,light)” value is on record as 71. Also, the “PI red light (IC50,dark/IC50,light)” value in assay [1] is on record as 5. For the same compound, the “TON1h (NADH oxidation)” value in assay [2] (470 nm blue light) was 5.75; in assay [2] (dark), 0.14. The “1O2 generation quantum yield (ϕΔ), DPBF” value in assay [3] was 0.99. In addition, the “Slope (S) of ‐ln(normalized Abs) vs time” value was found to be 0.0771 in assay [3] (λir = 470 nm) and 0.0061 in assay [3] (λir = 530 nm).
